One series concerns the target T1, hERG potassium channel (Homo sapiens, UniProt Q12809).
T1 construct: host or cells: CHO
Briefly: hERG inhibition assay (manual whole-cell patch-clamp, CHO cells). It counts as cell-based. As for the experimental part:
Compounds were tested for the potential to inhibit the hERG potassium channel. It is known that inhibition of the hERG channel may cause QT prolongation and increase the risk of cardiac arrhythmias. Therefore, to avoid cardiotoxicity, a compound with relatively low or no inhibition of the channel is desirable. Manual whole-cell patch-clamp recordings were made in Chinese hamster ovary (CHO) cells stably expressing hERG channels (B'Sys, Switzerland). Standard intracellular and bath solutions for hERG current detection were used. Cells were exposed to test compounds at 6 concentrations prepared by 1:3 serial dilution of compounds from a top starting concentration of 30 μM. Currents were elicited by stepping the voltage from a holding potential of −80 mV to −50 mV (20 ms) and then stepping to +40 mV (4 s). A subsequent step to −50 mV (4 s) was used to elicit a tail current which was used for data analysis. Current recordings were made in triplicate using three different cells. Data normalized to the activity in vehicle (0.1 or 0.3% DMSO) were fit with 4-parameter non-linear regression, and IC50 values were determined from the dose-response curves, using GraphPad Prism software.

In the next series the test system is NCI-H358. Briefly: Cell proliferation assay panel (Cell Titer-Glo, 72 hr). The note with it: Homo sapiens. The series is classed as cell-based. How it is done: (§1) Potency of compounds was determined in cell proliferation assays in a panel of cancer cell lines. Cells were seeded in 384-well plates (Corning, Cat. #3765) at specified densities in 40 μL of culture medium and incubated overnight at 37° C. in a 5% CO2 incubator (culture conditions). With a robotic dispenser, serially diluted test compounds were added in a volume of 20 nL DMSO to wells in the culture plate to achieve the final desired concentrations of test compounds, and the cells were further incubated in culture conditions for 72 hr. The assay was terminated by addition of 25 μL of Cell Titer-Glo reagent (Promega, Madison, Wis.) to each well. Contents were mixed, the plate was incubated for 10 min at room temperature and luminescence was measured. The IC50 value of each test compound was calculated with XLFit curve fitting software. Results are shown in Table 4. ‘+++’ indicates IC50 values≤300 nM, ‘++’ indicates IC50 values between 300 nM-3 μM, and ‘+’ indicates IC50 values≥3 μM.
A general note: ATP-based viability assays read luminescence as a measure of living cells.

A further series deals with MIA PaCa-2. The description is as above. The note with it: Homo sapiens, MIA PaCa-2, 72 h. The series is classed as cell-based. How it is done: as §1
For a further series, the system named is SW1573. Described as above. The series is classed as cell-based. The note with it: Homo sapiens. How it is done:
as §1

In the next series the test system is NCI-H2030. The series is described as above. It counts as cell-based. The conditions noted are these: Homo sapiens. As for the experimental part:
as §1

A further series deals with NCI-H2122. Described as above. The note with it: Homo sapiens. The series is classed as cell-based. As for the experimental part:
as §1

The next series deals with KYSE-410. The description is as above. The note with it: Homo sapiens. The series is classed as cell-based. As for the experimental part:
as §1

The test system of another series is A549. Described as above. The series is classed as cell-based. The note with it: Homo sapiens. As for the experimental part: as §1
Another series deals with NCI-H1373. Described as above. The note with it: Homo sapiens. It counts as cell-based. As for the experimental part: as §1
The test system of series [1] is NCI-H358 subcutaneous xenograft tumors. The experiment in a line: NCI-H358 mouse xenograft model.
Description: NCI-H358 cells were injected subcutaneously (5×10^6 cells in 0.1 mL of PBS) into the right flanks of 6-8-week-old female BALB/c nude mice and allowed to grow until the average tumor size reached 150-200 mm^3. The mice were then stratified into treatment groups of 4-8 animals and treatment initiated on Day 0. Test compound or vehicle (1% Tween 80, 2% HPMC, and 97% water) was administered orally, once daily, for 21 days. Tumor size was measured twice weekly in two dimensions using a caliper, and the volume was expressed in mm^3 using the formula: V=(a×b^2/2) where a and b are the long and short diameters of the tumor, respectively. Tumor Growth Inhibition (TGI) was calculated for each group using the formula: TGI %=(1−Ti/Vi)×100, where Ti is the mean tumor volume of the treatment group on the measurement day, and Vi is the mean tumor volume of the control group on the measurement day. Animal body weight was monitored regularly as an indicator of toxicity. […] Data points represent the group mean, and error bars represent the standard error of the mean (SEM).
Series [2] deals with Phosphorylation of ERK in NCI-H358 cells. The experiment in a line: pERK assay (Method II, homogeneous TR-FRET). The series is classed as cell-based. The conditions noted are these: Homo sapiens, 4 hrs compound treatment. As for the experimental part:
Method II. Phosphorylation of ERK was assessed by a homogeneous TR-FRET assay (Advanced phospho-ERK (Thr202/Tyr204) cellular kit; Cat. #64AERPEH, Cisbio). In brief, NCI-H358 cells were seeded in a 384-well culture plate at a density of 6000 cells in 40 μL medium/well and grown overnight at 37° C. and 5% CO2. Each test compound was dosed in duplicate in a 10-dose 3-fold titration starting at 10 μM or 2 μM. The culture plate was then incubated for 4 hrs in the incubator. At the end of the compound treatment, the medium was removed, 35 μL of lysis buffer was added to each well, and the plate was agitated on a plate shaker for 40 mins at 4° C. An antibody cocktail of phospho-ERK1/2 Eu Cryptate antibody and Phospho-ERK1/2 d2 antibody was prepared by separately diluting the antibodies 20-fold with detection buffer and then mixing them together. 3.4 μL of antibody cocktail was dispensed to each well of an empty 384-well white ProxiPlus assay plate (Perkin Elmer), and the plate briefly centrifuged. 13.6 μL of cell lysate was then added to the antibody-containing wells, and the plate was briefly centrifuged and then incubated 2 hrs at room temperature. The plate was read on a fluorescence plate reader (Envision2104, Perkin Elmer), with an excitation wavelength of 337 nm and emission wavelengths of 615 nm and 665 nm. The IC50 value of each test compound was calculated with XLFit curve fitting software. Results are shown in Table 6. ‘+++’ indicates IC50 values≤300 nM, ‘++’ indicates IC50 values between 300 nM-3 μM, and ‘+’ indicates IC50 values≥3 μM.
Background: Time-resolved FRET reads energy transfer from a long-lived donor to a nearby acceptor.

Series [3] concerns MIA PaCa-2 subcutaneous xenograft tumors.
Description: MIA PaCa-2 cells were injected subcutaneously (10×10^6 cells in 0.2 mL of PBS with Matrigel (1:1)) into the right flanks of 6-8-week-old female BALB/c nude mice and allowed to grow until the average tumor size reached 150-200 mm^3. The mice were then stratified into treatment groups of 8 animals and treatment initiated on Day 0. Test compound or vehicle (1% Tween 80, 2% HPMC, and 97% water) was administered orally, once daily, for 14 days with an observational phase to monitor tumor growth post-treatment. Tumor size was measured twice weekly in two dimensions using a caliper, and the volume was expressed in mm^3 using the formula: V=(a×b^2/2) where a and b are the long and short diameters of the tumor, respectively. Tumor Growth Inhibition (TGI) was calculated for each group using the formula: TGI %=(1−Ti/Vi)×100, where Ti is the mean tumor volume of the treatment group on the measurement day, and Vi is the mean tumor volume of the control group on the measurement day. Animal body weight was monitored regularly as an indicator of toxicity. […] Data points represent the group mean, and error bars represent the standard error of the mean (SEM).
Another series deals with NCI-H358 cells. Briefly: 3D cell proliferation assay (Cell Titer-Glo 3D, 7 days). It counts as cell-based. The note with it: Homo sapiens, NCI-H358, 168 h, NCI-H358 3D, ultra-low attachment plate. As for the experimental part:
NCI-H358 cells (ATCC® CRL-5807™) were plated in a 384-well Black/Clear Round Bottom Ultra-Low Attachment Microplate (Corning) in medium (RPMI-1640+10% FBS) at a density of 1000 cells in 50 μL per well, then incubated overnight at 37° C. and 5% CO2. Cells were treated with test compounds at 9 concentrations within a specified concentration range (e.g., 0.5 nM-10 μM) for generation of dose response curves. Test compounds were prepared by 1:3 serial dilution in DMSO from a specified starting concentration (e.g., 20 μM, 2 μM or 0.2 μM) and then added to wells of the assay plate in a total volume of 150 nL DMSO. The cells were further incubated at 37° C. and 5% CO2 for 7 days. Cell viability was assessed by adding 40 μL of Cell Titer-Glo® 3D reagent (Cat. No.: G9683, Promega) to each well and reading luminescence after mixing and incubation of the samples. The IC50 value of each test compound was calculated with XLFit curve fitting software.

This is an account of results in patent US20230023009A1, “HETEROCYCLIC COMPOUNDS AND METHODS OF USE THEREOF” (SPARCBIO LLC, priority 2020, published 2023).

pIC50: −log10 of the molar value. Where two headings read alike, the source gives them in different places.

T1 sequence (Q12809 whole entry): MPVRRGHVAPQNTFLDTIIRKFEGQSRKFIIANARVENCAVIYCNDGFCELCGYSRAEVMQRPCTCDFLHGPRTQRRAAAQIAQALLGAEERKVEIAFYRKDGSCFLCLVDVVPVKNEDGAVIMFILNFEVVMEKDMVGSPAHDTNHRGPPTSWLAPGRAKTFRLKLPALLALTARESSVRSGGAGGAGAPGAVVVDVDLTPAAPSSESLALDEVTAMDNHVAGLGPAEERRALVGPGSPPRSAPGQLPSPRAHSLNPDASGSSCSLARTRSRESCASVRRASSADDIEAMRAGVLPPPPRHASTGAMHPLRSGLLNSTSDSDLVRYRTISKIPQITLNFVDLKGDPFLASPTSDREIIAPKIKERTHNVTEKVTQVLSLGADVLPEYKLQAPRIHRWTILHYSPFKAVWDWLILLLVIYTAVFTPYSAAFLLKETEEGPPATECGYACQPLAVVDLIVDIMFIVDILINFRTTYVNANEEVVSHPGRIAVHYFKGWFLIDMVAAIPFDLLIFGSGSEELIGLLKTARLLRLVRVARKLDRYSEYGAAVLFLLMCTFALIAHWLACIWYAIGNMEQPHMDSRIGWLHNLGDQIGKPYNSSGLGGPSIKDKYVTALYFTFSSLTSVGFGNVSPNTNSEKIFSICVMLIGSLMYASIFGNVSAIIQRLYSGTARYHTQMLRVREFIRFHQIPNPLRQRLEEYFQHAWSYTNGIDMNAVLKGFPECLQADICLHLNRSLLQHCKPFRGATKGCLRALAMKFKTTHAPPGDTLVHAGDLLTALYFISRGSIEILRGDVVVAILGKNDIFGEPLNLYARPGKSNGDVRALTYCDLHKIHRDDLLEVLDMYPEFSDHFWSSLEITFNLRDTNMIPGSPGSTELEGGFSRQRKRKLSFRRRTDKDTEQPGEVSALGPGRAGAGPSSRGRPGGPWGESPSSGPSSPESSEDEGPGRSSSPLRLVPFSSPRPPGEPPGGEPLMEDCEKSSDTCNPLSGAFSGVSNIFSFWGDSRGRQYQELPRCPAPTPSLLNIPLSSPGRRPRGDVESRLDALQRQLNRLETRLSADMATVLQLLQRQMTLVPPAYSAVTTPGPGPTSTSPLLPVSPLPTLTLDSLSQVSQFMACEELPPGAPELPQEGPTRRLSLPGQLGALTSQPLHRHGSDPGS

For the molecule `C=C(F)C(=O)N1CCN(c2nc(OC[C@@H]3CCCN3C)nc3c2CO[C@@H](c2cccc4cccc(Cl)c24)C3)C[C@@H]1CC#N` (single isomer, unassigned) [43 (Isomer B)], the pIC50 (as a rule, the negative decadic logarithm of the IC50, by convention in mol/L) at hERG potassium channel is 5.44; in the series on NCI-H358, ≥ 6.52; with MIA PaCa-2, ≥ 6.52; in the series with SW1573, ≤ 5.52; with NCI-H2030, 5.52 to 6.52; in the series with NCI-H2122, 5.52 to 6.52. For the same molecule, the pIC50 was ≤ 5.52 in the series with KYSE-410; ≤ 5.52 in the series on A549; 5.52 to 6.52 in the series on NCI-H1373; ≥ 6.52 in series [2]; ≥ 7.00 in the series on NCI-H358 cells. The TGI (commonly how far tumour growth fell short of that in controls) is recorded as 15.1% in series [1] (10 mg/kg orally once daily, Day 20 after treatment start); 43.6% in series [1] (30 mg/kg orally once daily, Day 20 after treatment start (day not restated for comparators)); 94.6% in [1] (100 mg/kg orally once daily, Day 20 after treatment start); 9.0% in [3] (10 mg/kg orally once daily, Day 14 after treatment start); 75.5% in series [3] (30 mg/kg orally once daily, Day 14 after treatment start (day not restated for comparator)); 94.6% in series [3] (100 mg/kg orally once daily, Day 14 after treatment start). The “tolerability (from body weight)” value is “well-tolerated” in series [1] (10, 30 and 100 mg/kg orally once daily for 21 days); “well-tolerated” in [3] (orally once daily for 14 days). The weight loss in series [1] (none of the mice greater than this, 10, 30 and 100 mg/kg once daily) was ≤ 10%.
